Test results reported in patent publication US12209102B2, “Heterocyclic compounds and uses thereof” (Kumquat Biosciences Inc., priority 2022, dated 2025).

Key:
A549 cells = assay: Ras cellular assay, growth of cells with K-Ras G12S mutation (CellTiter-Glo); format: cell-based; settings: Homo sapiens, cell growth, Example 9, G12S mutation, read-out: IC50 against A549 cells
Experimental: (§1) For example, this assay can be also used to assess a selective growth inhibition of a mutant Ras protein relative to a wildtype, or relative to a different mutant Ras protein.
(§2) A549 (ATCC CCL-185) and LS123 (ATCC CCL-255) cell lines comprise a G12S mutation and can be used to assess Ras cellular signaling in vitro, e.g., in response to the compounds herein. A549 culture medium is prepared with RPMI-1640 and 10% heat-inactivated FBS. LS123 culture medium is prepared with RPMI-1640 and 10% heat-inactivated FBS. A CellTiter-Glo (CTG) luminescent based assay (Promega) is used to assess growth of the cells, as a measurement of the ability of the compounds herein to inhibit Ras signaling in the cells. The cells (e.g., 800 per well) are seeded in their respective culture medium in standard tissue culture-treated 384-well format plates (Falcon #08-772-116) or ultra-low attachment surface 384-well format plates (S-Bio #MS-9384WZ). The day after plating, cells are treated with a dilution series (e.g., a 10 point 3-fold dilution series) of the compounds herein (e.g., approximately 40 μL final volume per well). Cell viability can be monitored (e.g., approximately 6 days later) according to the manufacturer's recommended instructions, where the CellTiter-Glo reagent is added (e.g., approximately 10 μL), vigorously mixed, covered, and placed on a plate shaker (e.g., approximately for 20 min) to ensure sufficient cell lysis prior to assessment of luminescent signal. The IC50 values are determined using the four parameter fit. The resulting IC50 value is a measurement of the ability of the compounds herein to reduce cell growth of Ras-driven cells (e.g., tumor cell lines) in vitro and/or in vivo.

K-Ras G12V = biological target: T1, K-Ras G12V (Homo sapiens, UniProt P01116, G12V); assay: HTRF resonance energy transfer assay, K-Ras G12V / SOS1 interaction; format: biochemical; settings: HTRF assay of Example 5; read-out: IC50 against K-Ras G12V
T1 construct: made in house; host or cells: E. coli BL21 (DE3)
Outline: (§3)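 Buffer about 5 mM HEPES pH 7.4 with ~150 mM NaCl, ~1 mM DTT, 0.05% BSA, 0.0025% (v/v) Igepal. Protein constructs used at molarity matching the IC50 range studied (e.g. ~500 nM). FRET between tagged K-Ras and hSOS1 measured after short incubation.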

SW620 cells = assay: Ras cellular assay, growth of cells with K-Ras G12V mutation (CellTiter-Glo); format: cell-based; settings: Homo sapiens, SW-620; cell growth, Example 9, G12V mutation; read-out: IC50 against SW620 cells
Experimental: as §1
as §2, with “SW620” for “A549”, “CCL-227)” for “CCL-185)”, “Capan-1” for “LS123”, “HTB-79)” for “CCL-255)”, “G12V” for “G12S”

K-Ras G12D = biological target: T2, K-Ras G12D (Homo sapiens, UniProt P01116, G12D); assay: HTRF resonance energy transfer assay, K-Ras G12D / SOS1 interaction; format: biochemical; settings: HTRF assay of Example 5; read-out: IC50 against K-Ras G12D
T2 construct: made in house; host or cells: E. coli BL21 (DE3)
Outline: as §3

K-Ras G12S = biological target: T3, K-Ras G12S (Homo sapiens, UniProt P01116, G12S); assay: HTRF resonance energy transfer assay, K-Ras G12S / SOS1 interaction; format: biochemical; settings: HTRF assay of Example 5; read-out: IC50 against K-Ras G12S
T3 construct: made in house; host or cells: E. coli BL21 (DE3)
Outline: as §3

K-Ras WT = biological target: T4, K-Ras WT (Homo sapiens, UniProt P01116); assay: HTRF resonance energy transfer assay, K-Ras WT / SOS1 interaction; format: biochemical; settings: HTRF assay of Example 5; read-out: IC50 against K-Ras WT
T4 construct: made in house; host or cells: E. coli BL21 (DE3)
Outline: as §3

T3 sequence (P01116 1-188 isoform P01116-2 G12S): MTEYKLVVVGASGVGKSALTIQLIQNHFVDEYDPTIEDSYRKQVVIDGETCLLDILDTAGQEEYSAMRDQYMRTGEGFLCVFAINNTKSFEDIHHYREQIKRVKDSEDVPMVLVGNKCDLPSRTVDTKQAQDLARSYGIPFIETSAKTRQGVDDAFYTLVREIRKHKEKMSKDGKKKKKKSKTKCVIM
T2 sequence (P01116 1-188 isoform P01116-2 G12D): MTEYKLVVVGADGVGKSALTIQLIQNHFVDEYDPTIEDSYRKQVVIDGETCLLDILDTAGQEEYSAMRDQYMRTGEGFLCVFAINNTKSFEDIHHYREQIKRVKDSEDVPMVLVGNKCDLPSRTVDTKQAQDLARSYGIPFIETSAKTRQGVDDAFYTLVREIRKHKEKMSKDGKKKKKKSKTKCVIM
T1 sequence (P01116 1-188 isoform P01116-2 G12V): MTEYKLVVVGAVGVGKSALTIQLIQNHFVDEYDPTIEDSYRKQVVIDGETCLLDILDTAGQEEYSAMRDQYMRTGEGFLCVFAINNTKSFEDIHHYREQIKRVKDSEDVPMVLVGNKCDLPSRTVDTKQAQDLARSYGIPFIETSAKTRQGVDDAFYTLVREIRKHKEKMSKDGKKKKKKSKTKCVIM
T4 sequence (P01116 1-188 isoform P01116-2): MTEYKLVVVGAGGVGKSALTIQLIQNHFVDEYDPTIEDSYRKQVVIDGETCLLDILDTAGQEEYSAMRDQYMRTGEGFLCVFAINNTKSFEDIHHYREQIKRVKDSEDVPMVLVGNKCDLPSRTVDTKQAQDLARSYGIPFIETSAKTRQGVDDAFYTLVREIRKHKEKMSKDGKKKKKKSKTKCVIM

Row | Compound | IC50 (A549 cells) [nM] | IC50 (K-Ras G12V) [nM] | IC50 (SW620 cells) [nM] | IC50 (K-Ras G12D) [nM] | IC50 (K-Ras G12S) [nM] | IC50 (K-Ras WT) [nM]
1 | C[C@H]1COc2c(Cl)c(-c3ccc(F)c4sc(N)c(C#N)c34)c(F)c3nc(OC[C@@]45CCCN4C[C@H](F)C5)nc(c23)N1CC(F)F [Compound 658, 2-amino-4-((5S)-8-chloro-4-(2,2-difluoroethyl)-10-fluoro-2-(((2R,7aS)-2-fluorotetrahydro-1H-pyrrolizin-7a(5H)-yl)methoxy)-5-methyl-5,6-dihydro-4H-[1,4]oxazepino[5,6,7-de]quinazolin-9-yl)-7-fluorobenzo[b]thiophene-3-carbonitrile] | < 5000 | – | – | – | – | –
2 | CN(C)C1CCC(N2CCOc3c(Cl)c(-c4ccc(F)c5sc(N)c(C#N)c45)c(F)c4nc(OC[C@@]56CCCN5C[C@H](F)C6)nc2c34)C1 (stereo partly drawn) [Compound 677, 2-amino-4-(8-chloro-4-(3-(dimethylamino)cyclopentyl)-10-fluoro-2-(((2R,7aS)-2-fluorotetrahydro-1H-pyrrolizin-7a(5H)-yl)methoxy)-5,6-dihydro-4H-[1,4]oxazepino[5,6,7-de]quinazolin-9-yl)-7-fluorobenzo[b]thiophene-3-carbonitrile] | – | < 100 | < 5000 | < 100 | < 100 | < 100
3 | CC[C@H]1COc2c(Cl)c(-c3ccc(F)c4sc(N)c(C#N)c34)c(F)c3nc(OC[C@@]45CCCN4C[C@H](F)C5)nc(c23)N1CC(F)F [Compound 619, 2-amino-4-((5S)-8-chloro-4-(2,2-difluoroethyl)-5-ethyl-10-fluoro-2-(((2R,7aS)-2-fluorotetrahydro-1H-pyrrolizin-7a(5H)-yl)methoxy)-5,6-dihydro-4H-[1,4]oxazepino[5,6,7-de]quinazolin-9-yl)-7-fluorobenzo[b]thiophene-3-carbonitrile] | – | < 100 | < 5000 | < 100 | < 100 | < 100
4 | C[C@H]1COc2c(Cl)c(-c3ccc(F)c4sc(N)c(C#N)c34)c(F)c3nc(OC[C@@]45CCCN4C[C@H](F)C5)nc(c23)N1CC1CC1C#N (stereo partly drawn) [Compound 818, 2-amino-4-((5S)-8-chloro-4-((2-cyanocyclopropyl)methyl)-10-fluoro-2-(((2R,7aS)-2-fluorotetrahydro-1H-pyrrolizin-7a(5H)-yl)methoxy)-5-methyl-5,6-dihydro-4H-[1,4]oxazepino[5,6,7-de]quinazolin-9-yl)-7-fluorobenzo[b]thiophene-3-carbonitrile] | – | < 100 | < 5000 | < 100 | < 100 | < 100
5 | N#Cc1c(N)sc2c(F)ccc(-c3c(Cl)c4c5c(nc(OC[C@@]67CCCN6C[C@H](F)C7)nc5c3F)N(C3CC3)[C@@H](CNC=O)CO4)c12 [Compound 1084, N-(((5S)-9-(2-amino-3-cyano-7-fluorobenzo[b]thiophen-4-yl)-8-chloro-4-cyclopropyl-10-fluoro-2-(((2R,7aS)-2-fluorotetrahydro-1H-pyrrolizin-7a(5H)-yl)methoxy)-5,6-dihydro-4H-[1,4]oxazepino[5,6,7-de]quinazolin-5-yl)methyl)formamide] | – | < 100 | < 5000 | < 100 | < 100 | < 100
6 | N#Cc1c(N)sc2c(F)ccc(-c3c(Cl)c4c5c(nc(OC[C@@]67CCCN6C[C@H](F)C7)nc5c3F)N(Cc3ccnn3CC(F)F)CCO4)c12 [Compound 720, 2-amino-4-(8-chloro-4-((1-(2,2-difluoroethyl)-1H-pyrazol-5-yl)methyl)-10-fluoro-2-(((2R,7aS)-2-fluorotetrahydro-1H-pyrrolizin-7a(5H)-yl)methoxy)-5,6-dihydro-4H-[1,4]oxazepino[5,6,7-de]quinazolin-9-yl)-7-fluorobenzo[b]thiophene-3-carbonitrile] | – | < 100 | < 5000 | < 100 | < 100 | < 100

Other lines, results leading:

Row | IC50 (A549 cells) [nM] | IC50 (K-Ras G12V) [nM] | IC50 (SW620 cells) [nM] | IC50 (K-Ras G12D) [nM] | IC50 (K-Ras G12S) [nM] | IC50 (K-Ras WT) [nM] | Compound
7 | < 5000 | – | – | – | – | – | N#Cc1c(N)sc2c(F)ccc(-c3c(Cl)c4c5c(nc(OC[C@@]67CCCN6C[C@H](F)C7)nc5c3F)N(CC(F)F)CCO4)c12 [Compound 827, 2-amino-4-(8-chloro-4-(2,2-difluoroethyl)-10-fluoro-2-(((2R,7aS)-2-fluorotetrahydro-1H-pyrrolizin-7a(5H)-yl)methoxy)-5,6-dihydro-4H-[1,4]oxazepino[5,6,7-de]quinazolin-9-yl)-7-fluorobenzo[b]thiophene-3-carbonitrile]
8 | < 5000 | – | – | – | – | – | N#Cc1c(N)sc2c(F)ccc(-c3c(Cl)c4c5c(nc(OC[C@@]67CCCN6C[C@H](F)C7)nc5c3F)N(C3CCCCC(O)C3)CCO4)c12 (stereo partly drawn) [Compound 825, 2-amino-4-(8-chloro-10-fluoro-2-(((2R,7aS)-2-fluorotetrahydro-1H-pyrrolizin-7a(5H)-yl)methoxy)-4-(3-hydroxycycloheptyl)-5,6-dihydro-4H-[1,4]oxazepino[5,6,7-de]quinazolin-9-yl)-7-fluorobenzo[b]thiophene-3-carbonitrile]
9 | – | < 100 | < 5000 | < 100 | < 100 | < 100 | CC(C)[C@H](N)C(=O)N1CCC(N2C[C@H](C)Oc3c(Cl)c(-c4ccc(F)c5sc(N)c(C#N)c45)c(F)c4nc(OC[C@@]56CCCN5C[C@H](F)C6)nc2c34)C1 (stereo partly drawn) [Compound 714, 4-((6S)-4-(1-(L-valyl)pyrrolidin-3-yl)-8-chloro-10-fluoro-2-(((2R,7aS)-2-fluorotetrahydro-1H-pyrrolizin-7a(5H)-yl)methoxy)-6-methyl-5,6-dihydro-4H-[1,4]oxazepino[5,6,7-de]quinazolin-9-yl)-2-amino-7-fluorobenzo[b]thiophene-3-carbonitrile]
10 | – | < 100 | < 5000 | < 100 | < 100 | < 100 | CC(O)C1COc2c(Cl)c(-c3ccc(F)c4sc(N)c(C#N)c34)c(F)c3nc(OC[C@@]45CCCN4C[C@H](F)C5)nc(c23)N1CC1CCCNC1 (stereo partly drawn) [Compound 764, 2-amino-4-(8-chloro-10-fluoro-2-(((2R,7aS)-2-fluorotetrahydro-1H-pyrrolizin-7a(5H)-yl)methoxy)-5-(1-hydroxyethyl)-4-(piperidin-3-ylmethyl)-5,6-dihydro-4H-[1,4]oxazepino[5,6,7-de]quinazolin-9-yl)-7-fluorobenzo[b]thiophene-3-carbonitrile]
11 | – | < 100 | < 5000 | < 100 | < 100 | < 100 | N#Cc1c(N)sc2c(F)ccc(-c3c(Cl)c4c5c(nc(OC[C@@]67CCCN6C[C@H](F)C7)nc5c3F)N(C3CCC(N)C3)CCO4)c12 (stereo partly drawn) [Compound 907, 2-amino-4-(4-(3-aminocyclopentyl)-8-chloro-10-fluoro-2-(((2R,7aS)-2-fluorotetrahydro-1H-pyrrolizin-7a(5H)-yl)methoxy)-5,6-dihydro-4H-[1,4]oxazepino[5,6,7-de]quinazolin-9-yl)-7-fluorobenzo[b]thiophene-3-carbonitrile]
